Source: ChEMBL document CHEMBL1201862, “PubChem BioAssay data set” (2004)
Active and inactive are the calls of the source.

How the values were obtained:
Type in all cases: functional
[1] = molecular target: T1, Replicative DNA helicase DnaB (Mycobacterium tuberculosis, UniProt P9WMR3); experiment: DnaB intein splicing inhibitors, dose response, biochemical, cell-free fluorescence (AID 449749)
T1 sequence (P9WMR3 whole entry): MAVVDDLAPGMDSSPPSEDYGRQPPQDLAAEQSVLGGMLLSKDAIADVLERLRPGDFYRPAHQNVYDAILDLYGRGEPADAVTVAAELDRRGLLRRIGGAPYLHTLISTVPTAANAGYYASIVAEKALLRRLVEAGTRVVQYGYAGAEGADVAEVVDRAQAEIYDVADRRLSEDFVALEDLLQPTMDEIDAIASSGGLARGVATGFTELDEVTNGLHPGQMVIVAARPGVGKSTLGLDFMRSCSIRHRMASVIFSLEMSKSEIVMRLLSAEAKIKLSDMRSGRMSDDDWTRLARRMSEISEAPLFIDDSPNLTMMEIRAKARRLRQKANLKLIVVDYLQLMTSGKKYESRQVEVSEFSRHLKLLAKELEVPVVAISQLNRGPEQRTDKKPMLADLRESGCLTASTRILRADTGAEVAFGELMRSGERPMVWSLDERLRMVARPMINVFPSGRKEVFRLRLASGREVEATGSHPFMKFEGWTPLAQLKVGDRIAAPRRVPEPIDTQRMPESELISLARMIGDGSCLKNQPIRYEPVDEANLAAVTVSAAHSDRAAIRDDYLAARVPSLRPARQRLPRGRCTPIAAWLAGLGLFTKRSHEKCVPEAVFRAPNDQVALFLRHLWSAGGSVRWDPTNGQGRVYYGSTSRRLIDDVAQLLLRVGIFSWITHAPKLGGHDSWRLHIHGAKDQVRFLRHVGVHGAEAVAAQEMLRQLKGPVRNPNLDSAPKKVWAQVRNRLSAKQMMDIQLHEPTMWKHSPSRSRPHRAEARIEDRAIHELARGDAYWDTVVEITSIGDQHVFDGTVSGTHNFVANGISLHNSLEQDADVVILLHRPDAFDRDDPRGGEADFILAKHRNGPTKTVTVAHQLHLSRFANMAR

[2] = molecular target: ALK tyrosine kinase receptor (Homo sapiens, UniProt Q9UM73);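 also: ALK tested as one member of a kinase panel screen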
SRSF protein kinase 1 = SRSF protein kinase 1 (Homo sapiens, UniProt Q96SB4);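 also: measured as one member of a kinome-wide kinase profiling panel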
[3] = molecular target: Tyrosine-protein kinase FRK (Homo sapiens, UniProt P42685);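 also: FRK tested as one member of a kinome panel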
Tyrosine-protein kinase FRK, sequence (P42685 whole entry): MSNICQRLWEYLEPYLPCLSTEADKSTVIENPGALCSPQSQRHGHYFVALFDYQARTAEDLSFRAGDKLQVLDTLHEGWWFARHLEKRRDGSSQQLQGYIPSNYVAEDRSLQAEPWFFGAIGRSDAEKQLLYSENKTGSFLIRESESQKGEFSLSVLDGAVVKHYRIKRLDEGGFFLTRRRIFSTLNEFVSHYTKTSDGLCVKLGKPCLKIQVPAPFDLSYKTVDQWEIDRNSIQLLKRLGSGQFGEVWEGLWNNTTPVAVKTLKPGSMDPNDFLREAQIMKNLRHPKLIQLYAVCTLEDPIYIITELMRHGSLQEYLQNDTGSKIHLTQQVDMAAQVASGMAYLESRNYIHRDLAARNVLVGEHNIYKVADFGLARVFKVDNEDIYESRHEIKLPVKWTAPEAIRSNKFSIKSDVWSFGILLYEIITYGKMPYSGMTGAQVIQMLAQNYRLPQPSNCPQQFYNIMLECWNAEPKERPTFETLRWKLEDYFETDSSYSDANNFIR

SRSF protein kinase 1, sequence (Q96SB4 whole entry): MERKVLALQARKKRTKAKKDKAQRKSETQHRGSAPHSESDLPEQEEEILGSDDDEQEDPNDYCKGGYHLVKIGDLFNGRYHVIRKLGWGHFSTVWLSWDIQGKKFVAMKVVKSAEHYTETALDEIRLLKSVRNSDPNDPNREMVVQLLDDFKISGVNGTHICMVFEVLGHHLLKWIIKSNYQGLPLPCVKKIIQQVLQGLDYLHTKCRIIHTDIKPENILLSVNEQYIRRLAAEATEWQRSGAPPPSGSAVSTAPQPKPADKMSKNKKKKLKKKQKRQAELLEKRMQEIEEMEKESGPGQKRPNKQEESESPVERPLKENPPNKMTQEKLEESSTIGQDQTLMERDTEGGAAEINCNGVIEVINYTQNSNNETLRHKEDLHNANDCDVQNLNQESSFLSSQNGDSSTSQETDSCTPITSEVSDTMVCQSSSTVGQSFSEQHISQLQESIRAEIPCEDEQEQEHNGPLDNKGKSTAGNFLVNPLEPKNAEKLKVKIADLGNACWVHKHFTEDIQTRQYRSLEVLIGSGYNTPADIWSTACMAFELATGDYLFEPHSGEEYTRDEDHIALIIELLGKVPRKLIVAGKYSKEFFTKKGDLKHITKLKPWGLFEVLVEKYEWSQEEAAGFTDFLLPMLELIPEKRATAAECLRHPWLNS
ALK tyrosine kinase receptor, sequence (Q9UM73 whole entry): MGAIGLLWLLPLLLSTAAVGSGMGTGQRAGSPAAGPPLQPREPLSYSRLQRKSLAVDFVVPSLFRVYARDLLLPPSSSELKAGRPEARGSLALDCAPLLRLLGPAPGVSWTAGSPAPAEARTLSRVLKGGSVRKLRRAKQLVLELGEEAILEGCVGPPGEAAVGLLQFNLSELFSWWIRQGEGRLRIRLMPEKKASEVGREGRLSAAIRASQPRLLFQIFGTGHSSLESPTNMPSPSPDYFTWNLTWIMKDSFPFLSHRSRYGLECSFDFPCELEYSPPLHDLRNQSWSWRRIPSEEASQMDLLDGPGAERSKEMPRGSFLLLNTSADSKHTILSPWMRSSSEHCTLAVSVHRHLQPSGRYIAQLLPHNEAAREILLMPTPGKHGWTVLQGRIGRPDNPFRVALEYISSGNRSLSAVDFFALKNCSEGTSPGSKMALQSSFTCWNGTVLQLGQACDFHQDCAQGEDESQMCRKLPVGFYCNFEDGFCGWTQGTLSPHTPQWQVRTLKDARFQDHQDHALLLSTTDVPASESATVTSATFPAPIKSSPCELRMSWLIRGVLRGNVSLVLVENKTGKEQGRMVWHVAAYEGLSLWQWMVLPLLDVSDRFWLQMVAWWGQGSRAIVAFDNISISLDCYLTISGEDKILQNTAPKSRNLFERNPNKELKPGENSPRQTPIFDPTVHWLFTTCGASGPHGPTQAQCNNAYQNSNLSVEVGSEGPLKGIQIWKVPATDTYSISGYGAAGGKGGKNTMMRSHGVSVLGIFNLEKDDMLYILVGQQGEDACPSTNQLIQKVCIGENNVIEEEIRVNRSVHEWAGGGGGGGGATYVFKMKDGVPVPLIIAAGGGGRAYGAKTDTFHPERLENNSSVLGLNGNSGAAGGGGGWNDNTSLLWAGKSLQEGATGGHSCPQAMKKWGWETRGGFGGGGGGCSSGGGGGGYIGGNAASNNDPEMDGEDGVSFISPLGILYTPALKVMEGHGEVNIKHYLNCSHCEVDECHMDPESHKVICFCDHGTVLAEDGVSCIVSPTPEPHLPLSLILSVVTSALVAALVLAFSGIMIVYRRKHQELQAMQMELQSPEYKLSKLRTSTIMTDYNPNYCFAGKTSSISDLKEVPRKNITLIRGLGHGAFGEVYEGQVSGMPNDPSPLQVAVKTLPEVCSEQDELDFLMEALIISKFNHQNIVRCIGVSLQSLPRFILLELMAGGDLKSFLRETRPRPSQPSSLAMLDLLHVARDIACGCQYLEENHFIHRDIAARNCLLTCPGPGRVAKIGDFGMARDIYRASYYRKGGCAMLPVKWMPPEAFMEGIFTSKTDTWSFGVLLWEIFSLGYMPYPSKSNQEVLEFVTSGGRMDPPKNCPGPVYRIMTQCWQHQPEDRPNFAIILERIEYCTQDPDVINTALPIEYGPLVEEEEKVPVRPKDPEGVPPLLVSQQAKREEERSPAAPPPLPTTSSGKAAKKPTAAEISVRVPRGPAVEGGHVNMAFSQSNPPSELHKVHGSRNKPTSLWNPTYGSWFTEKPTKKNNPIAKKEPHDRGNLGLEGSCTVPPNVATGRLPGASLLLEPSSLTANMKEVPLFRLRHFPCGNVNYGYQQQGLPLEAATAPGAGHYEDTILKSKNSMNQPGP

SMILES	AC50 [1]	Ki [2]	Ki (SRSF protein kinase 1)	Ki [3]
CC(=O)NC1C(=O)N(CCN2CCOCC2)c2ccc(Cl)cc21 (centres undefined)	16600 nM (active)			
Cc1n[nH]c2cnc(-c3cncc(OCC(N)Cc4cccc(C(F)(F)F)c4)c3)cc12 (centres undefined)		> 1260 nM (inactive)	631 nM (active)	> 2510 nM (inactive)
